These results are taken from US9617283B2, “Bicyclic heterocycle compounds and their uses in therapy” (ASTEX THERAPEUTICS LIMITED, priority 2012, dated 2017).

Where a name gives a salt, the structure may show the parent alone. Read-outs that look alike come from different tables or passages of the source.

Assay [1] concerns EVSA-T (human breast carcinoma). Kind of assay: Anti-proliferative activity, Alamar Blue assay, EVSA-T. The format is cell-based.
In assay [2] the target is T1, BIR3 domain of human XIAP (residues 252-350) (Homo sapiens, UniProt P98170).
T1 construct: BIR3 domain of human XIAP (residues 252-350); His-tag (cleaved yes); made in house; host or cells: Escherichia coli
Kind of assay: XIAP in vitro competitive displacement binding assay (fluorescence polarization). The note with it: 1 h, percent inhibition (PI) at 0.04 μM; read-out: Xiap IC50 or PI μM. (Fluorescence polarisation rises when a labelled molecule tumbles more slowly, as on binding a larger partner.)

The mark [3] stands for this setting: Homo sapiens, EVSA-T, 72 h, EVSA-T cell line, 72 hours, Alamar Blue; read-out: EVSA-T prolif.
Setting [4] is: Homo sapiens, EVSA-T; read-out: EC50 in EVSA-T cell line assays.
[5] abbreviates: Homo sapiens, EVSA-T, read-out: EC50 in EVSA-T cell line assays.

T1 sequence (P98170 252-350): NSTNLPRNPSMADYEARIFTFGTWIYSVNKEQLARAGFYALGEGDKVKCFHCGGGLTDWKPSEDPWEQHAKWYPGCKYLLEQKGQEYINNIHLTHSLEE

On to `C[C@@H]1CN(CC(=O)N2CC(C)(C)c3ncc([C@H](O)c4ccc(F)cc4)cc32)[C@@H](CN2Cc3ccccc3C2=O)CN1` [Example 84, 2-{[(2R,5R)-1-(2-{6-[(R)-(4-Fluorophenyl)(hydroxy)methyl]-3,3-dimethyl-1H,2H,3H-pyrrolo[3,2-b]pyridin-1-yl}-2-oxoethyl)-5-methylpiperazin-2-yl]methyl}-2,3-dihydro-1H-isoindol-1-one dihydrochloride], for which the figures for the EC50 in assay [1] (setting [3]) and in assay [1] (setting [4]) were 150 nM and below 1000 nM, respectively. Moreover, in assay [2], the inhibition at 0.04 µM was determined as 51%.
Regarding `CC1=C(C)C(=O)N(C[C@H]2CN[C@H](C)CN2CC(=O)N2CC(C)(C)c3cnc(Cc4ccc(F)cc4F)cc32)C1` [Example 33, 1-{[(2R,5R)-1-(2-{6-[(2,4-Difluorophenyl)methyl]-3,3-dimethyl-1H,2H,3H-pyrrolo[3,2-c]pyridin-1-yl}-2-oxoethyl)-5-methylpiperazin-2-yl]methyl}-3,4-dimethyl-2,5-dihydro-1H-pyrrol-2-one dihydrochloride], the EC50 in assay [1] (setting [3]) is 1.1 nM; in assay [1] (setting [4]), below 1000 nM. The inhibition at 0.04 µM in assay [2] was 81%.
For `C[C@@H]1CN(CC(=O)N2CC(C)(C)c3ncc(Cc4ccc(F)cc4F)cc32)[C@@H](CN2C[C@H](C)OCC2=O)CN1` (single isomer, unassigned) [Example 23, (6R or 6S)-4-{[(2R,5R)-1-(2-{6-[(2,4-Difluorophenyl)methyl]-3,3-dimethyl-1H,2H,3H-pyrrolo[3,2-b]pyridin-1-yl}-2-oxoethyl)-5-methylpiperazin-2-yl]methyl}-6-methylmorpholin-3-one, dihydrochloride], the EC50 in assay [1] (setting [3]) was 2.8 nM; in assay [1] (setting [4]) it was below 1000 nM. Also, the inhibition at 0.04 µM in assay [2] is 64%.
In the case of `C[C@@H]1CN(CC(=O)N2CC(C)(C)c3ncc(Cc4ccc(F)cc4F)cc32)[C@@H](CN2C(=O)CO[C@@H](C)[C@H]2C)CN1` [Example 100, (5R,6S)-4-{[(2R,5R)-1-(2-{6-[(2,4-Difluorophenyl)methyl]-3,3-dimethyl-1H,2H,3H-pyrrolo[3,2-b]pyridin-1-yl}-2-oxoethyl)-5-methylpiperazin-2-yl]methyl}-5,6-dimethylmorpholin-3-one dihydrochloride], the EC50 is 1.9 nM in assay [1] (setting [3]) and below 1000 nM in assay [1] (setting [4]). Besides, the inhibition at 0.04 µM in assay [2] came to 41%.
`C[C@@H]1CN(CC(=O)N2CC(C)(C)c3ncc(Cc4ccc(F)cc4)cc32)[C@@H](CN2CCCCC2=O)CN1` [Example 21, 1-{[(2R,5R)-1-(2-{6-[(4-Fluorophenyl)methyl]-3,3-dimethyl-1H,2H,3H-pyrrolo[3,2-b]pyridin-1-yl}-2-oxoethyl)-5-methylpiperazin-2-yl]methyl}piperidin-2-one, dihydrochloride]: the EC50 in assay [1] (setting [3]) is 2.1 nM; in assay [1] (setting [5]) it was below 1000 nM. Besides, the inhibition at 0.04 µM in assay [2] is 44%.
With `C[C@@H]1CN(CC(=O)N2CC(C)(C)c3nnc(Cc4ccc(F)cc4F)cc32)[C@@H](CN2Cc3cc(O)ccc3C2=O)CN1` [Example 108, 2-{[(2R,5R)-1-(2-{3-[(2,4-Difluorophenyl)methyl]-7,7-dimethyl-5H,6H,7H-pyrrolo[3,2-c]pyridazin-5-yl}-2-oxoethyl)-5-methylpiperazin-2-yl]methyl}-5-hydroxy-2,3-dihydro-1H-isoindol-1-one dihydrochloride], the EC50 is 11 nM in assay [1] (setting [3]) and below 1000 nM in assay [1] (setting [4]). For the same compound, in assay [2], the inhibition at 0.04 µM was 88%.
Turning to `C[C@@H]1CN(CC(=O)N2CC(C)(C)c3cnc(Cc4ccc(F)cc4F)cc32)[C@@H](CN2Cc3ccccc3C2=O)CN1` [Example 77, 2-{[(2R,5R)-1-(2-{6-[(2,4-Difluorophenyl)methyl]-3,3-dimethyl-1H,2H,3H-pyrrolo[3,2-c]pyridin-1-yl}-2-oxoethyl)-5-methylpiperazin-2-yl]methyl}-2,3-dihydro-1H-isoindol-1-one dihydrochloride], the EC50 in assay [1] (setting [3]) was 0.17 nM; in assay [1] (setting [4]) it was below 1000 nM. Moreover, the inhibition at 0.04 µM in assay [2] worked out at 90%.
The corresponding values for `CCCC(F)(F)c1cc2c(cn1)C(C)(C)CN2C(=O)CN1C[C@@H](C)NC[C@@H]1CN1Cc2ncccc2C1=O` [Example 68, 6-{[(2R,5R)-1-{2-[6-(1,1-Difluorobutyl)-3,3-dimethyl-1H,2H,3H-pyrrolo[3,2-c]pyridin-1-yl]-2-oxoethyl}-5-methylpiperazin-2-yl]methyl}-5H,6H,7H-pyrrolo[3,4-b]pyridin-5-one dihydrochloride] are 2.4 nM, below 1000 nM and 72%.
As to `C[C@@H]1CN(CC(=O)N2CC(C)(C)c3ncc(Cc4ccc(F)cc4F)cc32)[C@@H](CN2CC(C)(C)CC2=O)CN1` [Example 30, 1-{[(2R,5R)-1-(2-{6-[(2,4-Difluorophenyl)methyl]-3,3-dimethyl-1H,2H,3H-pyrrolo[3,2-b]pyridin-1-yl}-2-oxoethyl)-5-methylpiperazin-2-yl]methyl}-4,4-dimethylpyrrolidin-2-one dihydrochloride], the EC50 in assay [1] (setting [3]) is 1.1 nM; in assay [1] (setting [5]), below 1000 nM. Moreover, in assay [2], the inhibition at 0.04 µM turned out to be 70%.
Take `C[C@@H]1CN(CC(=O)N2CC(C)(C)c3cnc(Cc4ccc(F)cc4)cc32)[C@@H](CN2C[C@H](C)N(C)CC2=O)CN1` [Example 107, (5S)-1-{[(2R,5R)-1-(2-{6-[(4-Fluorophenyl)methyl]-3,3-dimethyl-1H,2H,3H-pyrrolo[3,2-c]pyridin-1-yl}-2-oxoethyl)-5-methylpiperazin-2-yl]methyl}-4,5-dimethylpiperazin-2-one dihydrochloride]: the EC50 in assay [1] (setting [3]) was 11 nM; in assay [1] (setting [4]) it was below 1000 nM. Further, the inhibition at 0.04 µM in assay [2] worked out at 67%.
In the case of `C[C@@H]1CN(CC(=O)N2CC(C)(C)c3cnc(Cc4ccc(F)cc4)cc32)[C@@H](CN2Cc3ncccc3C2=O)CN1` [Example 20, 6-{[(2R,5R)-1-(2-{6-[(4-Fluorophenyl)methyl]-3,3-dimethyl-1H,2H,3H-pyrrolo[3,2-c]pyridin-1-yl}-2-oxoethyl)-5-methylpiperazin-2-yl]methyl}-5H,6H,7H-pyrrolo[3,4-b]pyridin-5-one, dihydrochloride], the “EVSA-T prolif μM” value in assay [1] (EVSA-T cell line, % at 0.001 μM) was determined as 92% at. In addition, the EC50 in assay [1] (setting [5]) is below 1000 nM. The inhibition at 0.04 µM in assay [2] is 76%.
As for `CCCC(F)(F)c1cc2c(cn1)C(C)(C)CN2C(=O)CN1C[C@@H](C)NC[C@@H]1CN1C[C@H](C)CC1=O` [Example 72, (4R)-1-{[(2R,5R)-1-{2-[6-(1,1-Difluorobutyl)-3,3-dimethyl-1H,2H,3H-pyrrolo[3,2-c]pyridin-1-yl]-2-oxoethyl}-5-methylpiperazin-2-yl]methyl}-4-methylpyrrolidin-2-one dihydrochloride], the EC50 in assay [1] (setting [3]) was 27 nM; in assay [1] (setting [4]), below 1000 nM. Further, the inhibition at 0.04 µM in assay [2] is 79%.
`C[C@@H]1CN(CC(=O)N2CC(C)(C)c3cnc(Cc4ccc(F)cc4F)cc32)[C@@H](CN2CC(C)(C)CC2=O)CN1` [Example 32, 1-{[(2R,5R)-1-(2-{6-[(2,4-Difluorophenyl)methyl]-3,3-dimethyl-1H,2H,3H-pyrrolo[3,2-c]pyridin-1-yl}-2-oxoethyl)-5-methylpiperazin-2-yl]methyl}-4,4-dimethylpyrrolidin-2-one dihydrochloride]: the figures for the EC50 in assay [1] (setting [3]) and in assay [1] (setting [4]) were 1.3 nM and below 1000 nM, respectively. Moreover, the inhibition at 0.04 µM in assay [2] is 71%.
As to `C[C@@H]1CN(CC(=O)N2CC(C)(C)c3ncc(Cc4ccc(F)cc4F)cc32)[C@@H](CN2Cc3cc(O)ccc3C2=O)CN1` [Example 105, 2-{[(2R,5R)-1-(2-{6-[(2,4-Difluorophenyl)methyl]-3,3-dimethyl-1H,2H,3H-pyrrolo[3,2-b]pyridin-1-yl}-2-oxoethyl)-5-methylpiperazin-2-yl]methyl}-5-hydroxy-2,3-dihydro-1H-isoindol-1-one dihydrochloride], the EC50 in assay [1] (setting [3]) was 6.5 nM; in assay [1] (setting [4]), below 1000 nM. Besides, the inhibition at 0.04 µM in assay [2] worked out at 90%.
For the compound `C[C@@H]1CN(CC(=O)N2CC(C)(C)c3ncc(Cc4ccc(F)cc4F)cc32)[C@@H](CN2Cc3ccc(C#N)cc3C2=O)CN1` [Example 112, 2-{[(2R,5R)-1-(2-{6-[(2,4-Difluorophenyl)methyl]-3,3-dimethyl-1H,2H,3H-pyrrolo[3,2-b]pyridin-1-yl}-2-oxoethyl)-5-methylpiperazin-2-yl]methyl}-3-oxo-2,3-dihydro-1H-isoindole-5-carbonitrile dihydrochloride], the EC50 in assay [1] (setting [3]) is 2.7 nM; in assay [1] (setting [4]) it was below 1000 nM. Further, in assay [2], the inhibition at 0.04 µM was 85%.
For the compound `C[C@@H]1CN(CC(=O)N2CC(C)(C)c3cnc(Cc4ccc(F)cc4)cc32)[C@@H](CN2C[C@H](C)OCC2=O)CN1` (single isomer, unassigned) [Example 18, (6R or 6S)-4-{[(2R,5R)-1-(2-{6-[(4-Fluorophenyl)methyl]-3,3-dimethyl-1H,2H,3H-pyrrolo[3,2-c]pyridin-1-yl}-2-oxoethyl)-5-methylpiperazin-2-yl]methyl}-6-methylmorpholin-3-one L-lactate], the EC50 in assay [1] (setting [3]) is 3.5 nM; in assay [1] (setting [4]) it was below 1000 nM. Moreover, the inhibition at 0.04 µM in assay [2] is 70%.
`CCCC(F)(F)c1cc2c(cn1)C(C)(C)CN2C(=O)CN1C[C@@H](C)NC[C@@H]1CN1CC(C)(C)CC1=O` [Example 38, 1-{[(2R,5R-1-{2-[6-(1,1-Difluorobutyl)-3,3-dimethyl-1H,2H,3H-pyrrolo[3,2-c]pyridin-1-yl]-2-oxoethyl}-5-methylpiperazin-2-yl]methyl}-4,4-dimethylpyrrolidin-2-one dihydrochloride]: the results for the EC50 in assay [1] (setting [3]) and in assay [1] (setting [4]) were 13 nM and below 1000 nM, respectively. In assay [2], the inhibition at 0.04 µM was 76%.
